Here are results for 21 compounds from PubChem BioAssay AID330 (DTP/NCI, 2004).

The test deals with P388 leukemia ip, CD2F1 mice, survival T/C. As to the kind of experiment: NCI In Vivo Anticancer Drug Screen. Data for tumor model P388 Leukemia (intraperitoneal) in CD2F1 (CDF1) mice. Particulars: endpoint: median survival time, higher = longer survival. The method, boiled down: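 Mice carrying the transplanted tumor received test compound or vehicle. Survival was recorded in each group, and the value is the treated-group measurement divided by that of the vehicle-treated control group.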

Setting [1] is: dose: 60.0 mg/kg/injection, schedule: Q01DX005 (ip), vehicle: saline with Tween-80.
The mark [2] stands for this setting: dose: 120.0 mg/kg/injection, schedule: Q01DX005 (ip), vehicle: saline with Tween-80.
Where [3] appears, read: dose: 240.0 mg/kg/injection, schedule: Q01DX005 (ip), vehicle: saline with Tween-80.
Where [4] appears, read: dose: 50.0 mg/kg/injection, schedule: Q01DX005 (ip), vehicle: saline with Tween-80.
The mark [5] stands for this setting: dose: 100.0 mg/kg/injection, schedule: Q01DX005 (ip), vehicle: saline with Tween-80.
Where [6] appears, read: dose: 200.0 mg/kg/injection, schedule: Q01DX005 (ip), vehicle: saline with Tween-80.
The mark [7] stands for this setting: dose: 25.0 mg/kg/injection, schedule: Q01DX009 (ip), vehicle: saline with Tween-80.
Where [8] appears, read: dose: 50.0 mg/kg/injection, schedule: Q01DX009 (ip), vehicle: saline with Tween-80.
The mark [9] stands for this setting: dose: 50.0 mg/kg/injection, schedule: Q01DX009 (ip), vehicle: saline.
The mark [10] stands for this setting: dose: 100.0 mg/kg/injection, schedule: Q01DX009 (ip), vehicle: saline.
Setting [11] is: dose: 200.0 mg/kg/injection, schedule: Q01DX009 (ip), vehicle: saline.

The structures appear in SMILES notation. Where “and” joins values, the source holds several entries; their conditions need not be identical. Equal entries are not always repeated. Toxic doses and inconclusive results are not listed.

`N=C(N)c1ccc(/C=C/c2cc3cc(C(=N)N)ccc3o2)cc1`: the T/C by setting is: (dose: 12.5 mg/kg/injection, schedule: Q04DX003 (ip), vehicle: suspension in saline) 112 % of control; (dose: 25.0 mg/kg/injection, schedule: Q04DX003 (ip), vehicle: suspension in saline) 118 % of control; (dose: 50.0 mg/kg/injection, schedule: Q04DX003 (ip), vehicle: suspension in saline) 120 % of control; (dose: 100.0 mg/kg/injection, schedule: Q04DX003 (ip), vehicle: suspension in saline) 178 % of control.
In the case of `OC1(C(F)(F)F)NN2C=CC=CC2=NO1` (stereo not given), the T/C is 95 % of control under setting [1], 96 % of control under setting [2] and 100 % of control under setting [3].
Take `Brc1cc2c(cc1C=Nc1ccc(OCc3ccccc3)cc1)OCO2`: the T/C by setting is: (dose: 25.0 mg/kg/injection, schedule: Q01DX009 (ip), vehicle: other) 98 % of control; (dose: 50.0 mg/kg/injection, schedule: Q01DX009 (ip), vehicle: other) 103 % of control; (dose: 100.0 mg/kg/injection, schedule: Q01DX009 (ip), vehicle: other) 97 % of control; (dose: 200.0 mg/kg/injection, schedule: Q01DX009 (ip), vehicle: other) 95 % of control; (dose: 400.0 mg/kg/injection, schedule: Q01DX009 (ip), vehicle: other) 86 % of control.
With `c1ccc(SC2=C(Sc3ccccc3)CC2)cc1`, the T/C under setting [4] was 102 % of control, the T/C under setting [5] is 111 % of control and the T/C under setting [6] is 102 % of control.
For the compound `CCCCCCCC(=O)c1c(O)c2ccccc2oc1=O`, the T/C reads like this: (dose: 15.0 mg/kg/injection, schedule: Q01DX005 (ip), vehicle: saline with Tween-80) 102 % of control; (dose: 30.0 mg/kg/injection, schedule: Q01DX005 (ip), vehicle: saline with Tween-80) 105 % of control; under setting [1], 103 % of control and 96 % of control.
For `O=C(Cn1cnc2ccc([N+](=O)[O-])cc21)N1CCN(c2ccccc2)CC1`, the T/C under setting [1] is 93 % of control and the T/C under setting [2] is 93 % of control.
As for `Cn1c([N+](=O)[O-])cnc1/C=C1/Cc2cc(OCCN3CCCCCC3)ccc2C1=O`, the T/C under setting [7] was 110 % of control; the T/C under setting [8] is 101 % of control; the T/C (dose: 100.0 mg/kg/injection, schedule: Q01DX009 (ip), vehicle: saline with Tween-80) was 109 % of control.
In the case of `Cn1nc(-c2ccc(S(=O)(=O)F)cc2)s/c1=N/NC(=O)c1ccccc1`, the T/C was 87 % of control (dose: 60.0 mg/kg/injection, schedule: Q01DX005 (ip), vehicle: Klucel + Tween-80) and 92 % of control (dose: 120.0 mg/kg/injection, schedule: Q01DX005 (ip), vehicle: Klucel + Tween-80).
`N=C(N=C(C(Cl)(Cl)Cl)C(Cl)(Cl)Cl)N=C(C(Cl)(Cl)Cl)C(Cl)(Cl)Cl`: the T/C is 100 % of control under setting [1], 99 % of control under setting [2] and 104 % of control under setting [3].
`O=S(=O)(O)C1CC2NC3C4CCCC(S(=O)(=O)O)C4C(Nc4ccccc4)CC3N(c3ccccc3)C2CC1Nc1ccccc1` (stereo not given): the T/C was 112 % of control under setting [9], 116 % of control under setting [10] and 116 % of control under setting [11].
With `COc1cccc2c1C(=O)c1c(O)c3c(c(O)c1C2=O)CC(O)(C(C)=O)CC3OC1CC(NC(=O)C(F)(F)F)C(OC(=O)c2ccc([N+](=O)[O-])cc2)C(C)O1` (stereo not given), the T/C (dose: 3.13 mg/kg/injection, schedule: Q04DX003 (ip), vehicle: distilled water + Tween-80) is 102 % of control and 98 % of control; the T/C (dose: 6.25 mg/kg/injection, schedule: Q04DX003 (ip), vehicle: distilled water + Tween-80) is 101 % of control and 100 % of control; the T/C (dose: 12.5 mg/kg/injection, schedule: Q04DX003 (ip), vehicle: distilled water + Tween-80) is 99 % of control and 97 % of control; the T/C (dose: 25.0 mg/kg/injection, schedule: Q04DX003 (ip), vehicle: distilled water + Tween-80) is 111 % of control and 108 % of control; the T/C (dose: 50.0 mg/kg/injection, schedule: Q04DX003 (ip), vehicle: distilled water + Tween-80) is 95 % of control and 100 % of control.
As to `CCCCCCCCCCCCNC(=O)[C@@]1(O)[C@H](O)C2(CC)C=CCN3CCC4(c5cc([C@@]6(C(=O)OC)CC7CN(CCc8c6[nH]c6ccccc86)C[C@](O)(CC)C7)c(OC)cc5N(C)[C@H]41)C32` (stereo not given in full), the T/C (dose: 18.0 mg/kg/injection, schedule: Q01DX005 (ip), vehicle: other) was 157 % of control; the T/C (dose: 30.0 mg/kg/injection, schedule: Q01DX005 (ip), vehicle: other) was 182 % of control; the T/C (dose: 30.0 mg/kg/injection, schedule: Q01DX005 (ip), vehicle: saline) is 160 % of control; the T/C (dose: 50.0 mg/kg/injection, schedule: Q01DX005 (ip), vehicle: other) is 230 % of control; the T/C (dose: 50.0 mg/kg/injection, schedule: Q01DX005 (ip), vehicle: saline) was 177 % of control.
With `OC(CC1CCCCN1)c1cc(C(F)(F)F)nc2c(C(F)(F)F)cccc12` (stereo not given), the T/C reads like this: (dose: 12.5 mg/kg/injection, schedule: Q01DX009 (ip), vehicle: saline with Tween-80) 101 % of control; under setting [7], 100 % of control; under setting [8], 108 % of control.
As for `CCC1=C(NCc2ccccc2)COC1=O`, the T/C is, setting by setting: (dose: 50.0 mg/kg/injection, schedule: Q01DX001 (ip), vehicle: Klucel (hydroxypropylcellulose) (HPC)) 100 % of control; (dose: 100.0 mg/kg/injection, schedule: Q01DX001 (ip), vehicle: Klucel (hydroxypropylcellulose) (HPC)) 101 % of control; (dose: 200.0 mg/kg/injection, schedule: Q01DX001 (ip), vehicle: Klucel (hydroxypropylcellulose) (HPC)) 100 % of control.
`COc1ccc2[nH]c(=O)c(Br)c(C)c2c1`: the T/C reads like this: under setting [4], 101 % of control; under setting [5], 95 % of control; under setting [6], 100 % of control.
With `COC(=O)C/C(=C\c1cn(C(C)=O)c2ccccc12)[N+](=O)[O-]`, the T/C runs as follows: (dose: 6.25 mg/kg/injection, schedule: Q01DX005 (ip), vehicle: Klucel (hydroxypropylcellulose) (HPC)) 89 % of control; (dose: 12.5 mg/kg/injection, schedule: Q01DX005 (ip), vehicle: Klucel (hydroxypropylcellulose) (HPC)) 98 % of control; (dose: 25.0 mg/kg/injection, schedule: Q01DX005 (ip), vehicle: Klucel (hydroxypropylcellulose) (HPC)) 91 % of control.
As to `CCOC(=O)c1no[n+]([O-])c1C(=O)OCC`, the T/C is, setting by setting: (dose: 6.25 mg/kg/injection, schedule: Q01DX009 (ip), vehicle: Klucel (hydroxypropylcellulose) (HPC)) 103 % of control; (dose: 12.5 mg/kg/injection, schedule: Q01DX009 (ip), vehicle: Klucel (hydroxypropylcellulose) (HPC)) 105 % of control; (dose: 25.0 mg/kg/injection, schedule: Q01DX009 (ip), vehicle: Klucel (hydroxypropylcellulose) (HPC)) 101 % of control; (dose: 50.0 mg/kg/injection, schedule: Q01DX009 (ip), vehicle: Klucel (hydroxypropylcellulose) (HPC)) 86 % of control.
`CC1(C(=O)O)CCC2(C(=O)O)CCC3(C)C(=CCC4C5(C)CC(O)C(O)C(C)(CO)C5CCC43C)C2C1` (stereo not given): the T/C (dose: 6.25 mg/kg/injection, schedule: Q01DX009 (ip), vehicle: saline) is 100 % of control; the T/C (dose: 12.5 mg/kg/injection, schedule: Q01DX009 (ip), vehicle: saline) is 100 % of control; the T/C (dose: 25.0 mg/kg/injection, schedule: Q01DX009 (ip), vehicle: saline) is 96 % of control.
As to `COc1cc(-c2ccc(Nc3ccccc3C(=O)O)c(OC)c2)ccc1Nc1ccccc1C(=O)O`, the T/C runs as follows: under setting [9], 105 % of control; under setting [10], 100 % of control and 104 % of control and 109 % of control; under setting [11], 110 % of control; (dose: 400.0 mg/kg/injection, schedule: Q01DX009 (ip), vehicle: saline) 117 % of control and 124 % of control and 86 % of control.
As for `CCOC(=O)Cc1csc(/C=C/c2ccc(OC)c(OC)c2)n1`, the T/C was 96 % of control under setting [1], 96 % of control under setting [2] and 90 % of control under setting [3].
On to `O=C(O)COc1ccc(F)c(F)c1`, for which the T/C is 101 % of control and 104 % of control (dose: 60.0 mg/kg/injection, schedule: Q01DX005 (ip), vehicle: Klucel (hydroxypropylcellulose) (HPC)); 106 % of control and 94 % of control (dose: 120.0 mg/kg/injection, schedule: Q01DX005 (ip), vehicle: Klucel (hydroxypropylcellulose) (HPC)); 100 % of control and 86 % of control (dose: 240.0 mg/kg/injection, schedule: Q01DX005 (ip), vehicle: Klucel (hydroxypropylcellulose) (HPC)).
